This note sets out measurements from patent US20240287138A1, “CYCLIC PEPTIDES FOR INHIBITING TNF RECEPTOR 1 ACTIVITY” (Merck Sharp & Dohme LLC, priority 2023, published 2024).

Numbered stars: 1 amine (or outer) side, 2 acyl side, 3 side chain; on linkers, the order of the positions; unused ones are H or OH. Bridge positions count the residues as written; N and C are the ends. Square brackets hold non-standard residues; d marks the D form. Peptide text beside a SMILES is read from it. Trp(βS-Me,7-OMe) = COc1cccc2c([C@H](C)[C@H](N)C(=O)O)c[nH]c12; Trp(7-CN) = N#Cc1cccc2c(C[C@H](N)C(=O)O)c[nH]c12; Trp(7-Cl) = N[C@@H](Cc1c[nH]c2c(Cl)cccc12)C(=O)O; Phe(4-CONH2) = NC(=O)c1ccc(C[C@H](N)C(=O)O)cc1; Phe(4-COOH) = N[C@@H](Cc1ccc(C(=O)O)cc1)C(=O)O; Trp(7-aza) = N[C@@H](Cc1c[nH]c2ncccc12)C(=O)O; dPro(trans-4-F) = O=C(O)[C@H]1C[C@H](F)CN1; Pip(5R-OH) = O=C(O)[C@@H]1CC[C@@H](O)CN1; X1 = O=C([C@@H]1CC[C@H](N[*:1])C1)[*:2]; 2Nal = N[C@@H](Cc1ccc2ccccc2c1)C(=O)O; X31 = O=C(CN(CCc1nnco1)[*:1])[*:2]; hPhe = N[C@@H](CCc1ccccc1)C(=O)O; 3Pal = N[C@@H](Cc1cccnc1)C(=O)O; 4Pal = N[C@@H](Cc1ccncc1)C(=O)O; NMeE = CN[C@@H](CCC(=O)O)C(=O)O; αMeS = C[C@](N)(CO)C(=O)O; Nle = CCCC[C@H](N)C(=O)O; Dap = NC[C@H](N)C(=O)O; Sar = CNCC(=O)O

This experiment addresses T1, TNFα-induced NF-κB signal transduction pathway (TNFR1 signaling) in THP-1 cells (Homo sapiens, UniProt P19438).
T1 sequence (P19438 30-455): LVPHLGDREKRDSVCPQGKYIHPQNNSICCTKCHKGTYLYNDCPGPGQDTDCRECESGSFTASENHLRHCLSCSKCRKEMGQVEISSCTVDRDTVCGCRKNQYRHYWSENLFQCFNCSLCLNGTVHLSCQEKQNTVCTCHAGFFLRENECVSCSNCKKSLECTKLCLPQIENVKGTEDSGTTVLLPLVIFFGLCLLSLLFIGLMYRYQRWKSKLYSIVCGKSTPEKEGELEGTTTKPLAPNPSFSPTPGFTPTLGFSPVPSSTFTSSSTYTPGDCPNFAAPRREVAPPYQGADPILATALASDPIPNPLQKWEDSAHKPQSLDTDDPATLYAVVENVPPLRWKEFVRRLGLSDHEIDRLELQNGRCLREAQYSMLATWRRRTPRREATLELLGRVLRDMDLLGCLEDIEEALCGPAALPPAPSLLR
Nature of the experiment: THP-1 Lucia NF-κB reporter cell assay, inhibition of TNFα-induced NF-κB signaling. Format: cell-based. As to conditions: THP-1 NF-κB Lucia reporter cells, 10 ng/mL TNFα, 16-18 h, secreted luciferase; read-out: THP-1 IC50. Summed up:
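THP-1 Lucia NF-κB cells, 20k/well, no selection antibiotics; peptide pre-inc 1 h 37 °C; + recombinant human TNFα 10 ng/mL final; o.n.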
`CCCC[C@@H]1NC(=O)[C@@H]2CC[C@@H](C2)NC(=O)[C@H]([C@@H](C)c2c[nH]c3c(OC)cccc23)NC(=O)CN(C)C(=O)[C@H](Cc2ccc(C(N)=O)cc2)NC(=O)[C@H](Cc2ccc(C(N)=O)cc2)NC(=O)[C@](C)(CO)NC(=O)[C@H](Cc2c[nH]c3c(C#N)cccc23)NC(=O)[C@H](Cc2ccc(C(=O)O)cc2)NC(=O)[C@H](CC(N)=O)NC(=O)[C@H](CCC(=O)O)N(C)C(=O)[C@H](Cc2c[nH]c3ccccc23)NC(=O)[C@@H]2CC[C@@H](O)CN2C(=O)[C@H](Cc2ccncc2)NC1=O` [SEQ ID NO. 19] (cyclo([4Pal][Pip(5R-OH)]W[NMeE]N[Phe(4-COOH)][Trp(7-CN)][αMeS][Phe(4-CONH2)][Phe(4-CONH2)][Sar][Trp(βS-Me,7-OMe)][X1][Nle])): the IC50 turned out to be 0.6 nM. For `CN1CC(=O)N[C@@H](Cc2c[nH]c3ccccc23)C(=O)N[C@H](C(N)=O)CSCC(=O)N[C@@H](CCc2ccccc2)C(=O)N[C@@H](Cc2ccncc2)C(=O)N[C@@H](CN)C(=O)N[C@@H](Cc2c[nH]c3ccccc23)C(=O)N2CCC[C@@H]2C(=O)N[C@@H](CC(N)=O)C(=O)N[C@@H](Cc2ccncc2)C(=O)N[C@@H](Cc2ccc3ccccc3c2)C(=O)N[C@@](C)(CO)C(=O)N[C@@H](Cc2ccc(C(=O)O)cc2)C(=O)N[C@@H](Cc2cccnc2)C1=O` [SEQ ID NO. 233] ({CH2CO}-[hPhe][4Pal][Dap]W[dP]N[4Pal][2Nal][αMeS][Phe(4-COOH)][3Pal][Sar]WC-NH2; thioether N-14) the value was 14.2 nM; for `CCCC[C@@H]1NC(=O)[C@@H]2CC[C@@H](C2)NC(=O)[C@H]([C@@H](C)c2c[nH]c3c(OC)cccc23)NC(=O)CN(C)C(=O)[C@H](Cc2ccc(C(=O)O)cc2)NC(=O)[C@H](Cc2ccc(C(N)=O)cc2)NC(=O)[C@](C)(CO)NC(=O)[C@H](Cc2c[nH]c3c(C#N)cccc23)NC(=O)[C@H](Cc2ccncc2)NC(=O)[C@H](CC(N)=O)NC(=O)CN(CCc2nnco2)C(=O)[C@H](Cc2c[nH]c3ncccc23)NC(=O)[C@@H]2CC[C@@H](O)CN2C(=O)[C@H](Cc2ccncc2)NC1=O` [SEQ ID NO. 121] (cyclo([4Pal][Trp(7-CN)][αMeS][Phe(4-CONH2)][Phe(4-COOH)][Sar][Trp(βS-Me,7-OMe)][X1][Nle][4Pal][Pip(5R-OH)][Trp(7-aza)][X31]N)), 0.9 nM; for `CCCC[C@@H]1NC(=O)[C@@H]2CC[C@@H](C2)NC(=O)[C@H]([C@@H](C)c2c[nH]c3c(OC)cccc23)NC(=O)CN(C)C(=O)[C@H](Cc2ccc(C(=O)O)cc2)NC(=O)[C@H](Cc2ccc(C(N)=O)cc2)NC(=O)[C@](C)(CO)NC(=O)[C@H](Cc2c[nH]c3c(Cl)cccc23)NC(=O)[C@H](Cc2ccncc2)NC(=O)[C@H](CC(N)=O)NC(=O)[C@H]2C[C@H](F)CN2C(=O)[C@H](Cc2c[nH]c3ccccc23)NC(=O)[C@@H]2CC[C@@H](O)CN2C(=O)[C@H](Cc2ccncc2)NC1=O` [SEQ ID NO. 101] (cyclo([4Pal][Trp(7-Cl)][αMeS][Phe(4-CONH2)][Phe(4-COOH)][Sar][Trp(βS-Me,7-OMe)][X1][Nle][4Pal][Pip(5R-OH)]W[dPro(trans-4-F)]N)), 0.9 nM. For the molecule `CN1CC(=O)N[C@@H](Cc2c[nH]c3ccccc23)C(=O)N[C@H](C(N)=O)CSCC(=O)N[C@@H](CCCCN)C(=O)N[C@@H](Cc2ccc(O)cc2)C(=O)N[C@@H](CO)C(=O)N[C@@H](Cc2c[nH]c3ccccc23)C(=O)N2CCC[C@@H]2C(=O)N[C@@H](CCC(N)=O)C(=O)N[C@@H](Cc2ccncc2)C(=O)N[C@@H](Cc2c[nH]c3ccccc23)C(=O)N[C@@](C)(CO)C(=O)N[C@@H](Cc2ccc(C(=O)O)cc2)C(=O)N[C@@H](Cc2ccc(O)cc2)C1=O` [SEQ ID NO. 242] ({CH2CO}-KYSW[dP]Q[4Pal]W[αMeS][Phe(4-COOH)]Y[Sar]WC-NH2; thioether N-14), the IC50 was found to be 3 nM.
